How the values were obtained:
Plasmopara viticola = conditions: in vivo
Botrytis cinerea = conditions: in vivo
Phytophthora infestans = format: in vivo; conditions: 200 ppm, tomato leaf disks, preventive, assessed four days after inoculation

Compound: CC(C)Nc1c(-c2c(F)cc(F)cc2F)c(Cl)nc2ncc(Br)cc12 [3 (111), [6-bromo-2-chloro-3-(2,4,6-trifluorophenyl)-[1,8]naphthyridin-4-yl]-isopropylamine]
- control of disease (Plasmopara viticola): greater than 60%

Compound: CC(C)Nc1c(-c2c(F)cc(F)cc2F)c(Cl)nc2ncccc12 [3 (1), [2-chloro-3-(2,4,6-trifluorophenyl)-[1,8]naphthyridin-4-yl]-isopropylamine]
- melting point: 193 °C
- control of disease (Botrytis cinerea): greater than 60%

Compound: CC(C)Nc1nc2ncccc2c(Cl)c1-c1c(F)cc(F)cc1F
- melting point: 202 °C

Compound: Fc1cc(F)c(-c2c(Cl)nc3ncccc3c2N2CCOCC2)c(F)c1 [20 (1), 2-chloro-4-morpholin-4-yl-3-(2,4,6-trifluorophenyl)-[1,8]naphthyridine]
- control of disease (Phytophthora infestans): greater than 60%

Reference: patent publication US7947679B2 (priority 2002, dated 2011)
